# Patent publication US20260130879A1 (IMMUNIC AG, priority 2023, published 2026)
# Columns and labels:
# hDHODH = molecular target: T1, hDHODH (Homo sapiens, UniProt Q02127); assay: in vitro inhibition of hDHODH; assay type: biochemical
# T1 construct: measured using an N-terminally truncated recombinant hDHODH enzyme
# Description: The in vitro inhibition of hDHODH was measured using an N-terminally truncated recombinant hDHODH enzyme. Briefly, the hDHODH concentration was adjusted in a way that an average slope of approximately 0.2 AU/min served as the positive control (e.g., without inhibitor). The assay mixture contained 60 μM 2,6-dichloroindophenol, 50 μM decylubiquinone and 100 μM dihydroorotate. The hDHODH enzyme with or without at least six different concentrations of the compounds was added and measurements were performed in 50 mM TrisHCl, 150 mM KCl and 0.1% Triton X-100 at pH 8.0 and at 30° C. The reaction was started by adding dihydroorotate and measuring the absorption at 600 nm for 2 min. For the determination of the IC50 values, each data point was recorded in triplicate.
# human Nurr1 = human Nurr1 (Homo sapiens, UniProt P43354); assay: Hybrid Gal4-Nurr1 reporter gene assay in HEK293T cells
# Sequence of human Nurr1 (P43354 360-595 limits assumed): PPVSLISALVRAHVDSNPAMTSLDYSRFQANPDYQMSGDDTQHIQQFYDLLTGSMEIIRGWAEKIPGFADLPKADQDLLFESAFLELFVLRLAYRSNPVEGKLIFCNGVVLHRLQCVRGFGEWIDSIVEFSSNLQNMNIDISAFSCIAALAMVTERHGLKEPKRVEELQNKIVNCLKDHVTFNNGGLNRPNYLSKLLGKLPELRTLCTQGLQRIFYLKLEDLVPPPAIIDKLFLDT
# T1 sequence (Q02127 29-395): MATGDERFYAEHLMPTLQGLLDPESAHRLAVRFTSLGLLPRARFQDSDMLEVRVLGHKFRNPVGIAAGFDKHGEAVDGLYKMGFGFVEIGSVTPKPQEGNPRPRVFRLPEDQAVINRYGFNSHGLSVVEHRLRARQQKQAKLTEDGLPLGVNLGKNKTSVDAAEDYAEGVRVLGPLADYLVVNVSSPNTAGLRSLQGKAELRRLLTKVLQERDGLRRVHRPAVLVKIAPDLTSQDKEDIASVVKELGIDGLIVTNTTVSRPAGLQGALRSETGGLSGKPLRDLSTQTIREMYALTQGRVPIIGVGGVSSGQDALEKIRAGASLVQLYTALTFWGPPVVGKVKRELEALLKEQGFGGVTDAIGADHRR
Structure (SMILES),Fold Activation @ 3 μM (human Nurr1),IC50 (hDHODH),EC50 (human Nurr1),Nurr1 agonism max. fold activation (range) (human Nurr1),Fold Activation @ 0.3 μM (human Nurr1)
[2H]C([2H])([2H])Oc1cccc(-c2c(F)c(F)c(NC(=O)c3ccsc3C(N)=O)c(F)c2F)c1 [6/14],–,1 to 10 µM,0.1 to 1 µM,+ (+: ≥1.3-fold to <2-fold),–
[2H]C([2H])([2H])Oc1cccc(-c2c(F)c(F)c(NC(=O)C3=C(C(=O)N(C)C)CC(F)(F)C3)c(F)c2F)c1 [6/27],–,1 to 10 µM,1 to 10 µM,+ (+: ≥1.3-fold to <2-fold),–
[2H]C([2H])([2H])Oc1cccc(-c2c(F)c(F)c(NC(=O)c3ccsc3C(=O)NCC(F)(F)F)c(F)c2F)c1 [6/44],+ (+: ≥1.3-fold to <2-fold),–,–,–,–
[2H]C([2H])([2H])Oc1cccc(-c2cc(F)c(NC(=O)C3=C(/C(N)=N/O)CCC3)c(F)c2)c1 [2/20],–,–,0.1 to 1 µM,++ (++: ≥2-fold to <3-fold),–
[2H]C([2H])([2H])Oc1cccc(-c2c(F)c(F)c(NC(=O)C3=C(C(=O)O)CCC3)c(F)c2F)c1 [2/10],–,–,< 0.1 µM,+ (+: ≥1.3-fold to <2-fold),–
[2H]C([2H])([2H])Oc1cccc(-c2c(F)c(F)c(NC(=O)c3cscc3C(=O)O)c(F)c2F)c1 [6/3],++ (++: ≥2-fold to <3-fold),–,–,–,–
C#CCOc1cccc(-c2ccc(NC(=O)c3cscc3C(=O)O)c(F)c2)c1 [6/52],–,0.1 to 1 µM,< 0.1 µM,++ (++: ≥2-fold to <3-fold),–
C#CCOc1cccc(-c2ccc(NC(=O)c3cscc3C(=O)NCC)cc2)c1 [6/57],–,> 10 µM,1 to 10 µM,+ (+: ≥1.3-fold to <2-fold),–
[2H]C([2H])([2H])Oc1ccccc1-c1c(F)c(F)c(NC(=O)c2cscc2C(=O)O)c(F)c1F [6/5],–,< 0.01 µM,< 0.1 µM,+ (+: ≥1.3-fold to <2-fold),–
[2H]C([2H])([2H])Oc1cccc(-c2ccc(NC(=O)c3cscc3C(=O)NCC)cc2)c1 [6/56],–,> 10 µM,1 to 10 µM,+++ (+++: ≥3-fold),–
C#CCOc1cccc(-c2ccc(NC(=O)c3cscc3C(N)=O)cc2)c1 [6/54],–,> 10 µM,1 to 10 µM,+ (+: ≥1.3-fold to <2-fold),–
[2H]C([2H])([2H])Oc1cccc(-c2c(F)c(F)c(NC(=O)c3c(C(=O)O)sc(C)c3C)c(F)c2F)c1 [6/13],–,< 0.1 µM,< 0.1 µM,++ (++: ≥2-fold to <3-fold),–
COc1cccc(-c2ccc(NC(=O)C3=C(C(=O)NO)CCC3)c(F)c2)c1 [6/10],++ (++: ≥2-fold to <3-fold),–,–,–,–
[2H]c1c([2H])c([2H])c(-c2c(F)c(F)c(NC(=O)C3=C(C(N)=O)CC(F)(F)C3)c(F)c2F)c([2H])c1[2H] [6/46],–,1 to 10 µM,0.1 to 1 µM,–,–
[2H]c1c([2H])c([2H])c(-c2c(F)c(F)c(NC(=O)c3ccsc3C(N)=O)c(F)c2F)c([2H])c1[2H] [6/45],–,1 to 10 µM,0.1 to 1 µM,–,–
[2H]c1cc([2H])c(-c2c(F)c(F)c(NC(=O)c3ccsc3C(=O)O)c(F)c2F)c([2H])c1OC(F)(F)F [2/25],++ (++: ≥2-fold to <3-fold),–,–,–,+++ (+++: ≥3-fold)
[N-]=[N+]=NCCOc1cccc(-c2ccc(NC(=O)C3=C(C(=O)O)CCC3)c(F)c2)c1 [4/1],–,–,< 0.1 µM,+++ (+++: ≥3-fold),–

Structure (SMILES),Fold Activation @ 3 μM (human Nurr1),IC50 (hDHODH),EC50 (human Nurr1),Nurr1 agonism max. fold activation (range) (human Nurr1),Fold Activation @ 0.3 μM (human Nurr1)
[2H]c1cc([2H])c(-c2ccc(NC(=O)C3=C(C(=O)O)CCC3)c(F)c2)c([2H])c1O [2/4],–,–,0.1 to 1 µM,+ (+: ≥1.3-fold to <2-fold),–
[2H]C(F)(F)Oc1cccc(-c2ccc(NC(=O)C3=C(C(=O)O)CCC3)c(F)c2)c1 [2/2],–,1 to 10 µM,0.1 to 1 µM,+++ (+++: ≥3-fold),–
[2H]C([2H])([2H])Oc1ccccc1-c1c(F)c(F)c(NC(=O)C2=C(C(=O)O)CSC2)c(F)c1F [6/7],++ (++: ≥2-fold to <3-fold),–,–,–,–
[2H]C([2H])([2H])Oc1cccc(-c2cc(F)c(NC(=O)C3=C(C(=O)NOCCO)CCC3)c(F)c2)c1 [2/24],–,–,1 to 10 µM,+ (+: ≥1.3-fold to <2-fold),–
[2H]C([2H])([2H])Oc1cccc(-c2ccc(NC(=O)c3cscc3C(N)=O)cc2)c1 [6/53],–,> 10 µM,0.1 to 1 µM,+ (+: ≥1.3-fold to <2-fold),–
[2H]C([2H])([2H])Oc1cccc(-c2cc(F)c(NC(=O)C3=C(C(=O)NS(=O)(=O)C(F)F)CCC3)c(F)c2)c1 [2/22],–,–,1 to 10 µM,++ (++: ≥2-fold to <3-fold),–
[2H]C([2H])([2H])Oc1cccc(-c2cc(F)c(NC(=O)C3=C(C(=O)NOCCF)CCC3)c(F)c2)c1 [2/23],–,–,0.1 to 1 µM,+ (+: ≥1.3-fold to <2-fold),–
[2H]C([2H])([2H])Oc1cccc(-c2c(F)c(F)c(NC(=O)c3ccsc3C(=O)O)c(F)c2F)c1 [6/2],++ (++: ≥2-fold to <3-fold),–,–,–,–
[2H]C([2H])([2H])Oc1cccc(-c2ccc(N(C)C(=O)C3=C(C(=O)O)CCC3)c(F)c2)c1 [reference compound],–,–,> 10 µM,–,–
[2H]C([2H])([2H])Oc1cccc(-c2ccc(NC(=O)C3=C(C(=O)O)CCC3)c3cnccc23)c1 [2/13],–,–,1 to 10 µM,+++ (+++: ≥3-fold),–
O=C(O)C1=C(C(=O)Nc2c(F)cc(-c3cccc4c3OCO4)cc2F)CCC1 [reference compound],–,–,> 10 µM,–,–
C#CCOc1cccc(-c2c(F)c(F)c(NC(=O)c3ccsc3C(=O)NC)c(F)c2F)c1 [6/18],+ (+: ≥1.3-fold to <2-fold),–,–,–,–
[2H]C([2H])([2H])Oc1cccc(-c2c(F)c(F)c(NC(=O)c3ccsc3C(=O)NCC(F)F)c(F)c2F)c1 [6/41],–,–,–,–,+ (+: ≥1.3-fold to <2-fold)
[2H]C([2H])([2H])Oc1cccc(-c2cc(F)c(NC(=O)C3=C(C(=O)O)CCC3)c(OC([2H])([2H])[2H])c2)c1 [2/31],–,–,0.1 to 1 µM,+ (+: ≥1.3-fold to <2-fold),–
[2H]C([2H])([2H])Oc1cccc(-c2cc(F)c(NC(=O)C3=C(C(=O)NOCC)CCC3)c(F)c2)c1 [2/18],–,–,1 to 10 µM,++ (++: ≥2-fold to <3-fold),–
[2H]C([2H])([2H])Oc1cccc(-c2cc(F)c(NC(=O)C3=C(C(=O)NS(=O)(=O)C4(C)CC4)CCC3)c(F)c2)c1 [2/21],–,–,1 to 10 µM,++ (++: ≥2-fold to <3-fold),–

# Further lines, with some results ahead:
Fold Activation @ 3 μM (human Nurr1),Structure (SMILES),IC50 (hDHODH),EC50 (human Nurr1),Nurr1 agonism max. fold activation (range) (human Nurr1),Fold Activation @ 0.3 μM (human Nurr1)
+++ (+++: ≥3-fold),C#CCOc1cccc(-c2c(F)c(F)c(NC(=O)c3ccsc3C(=O)O)c(F)c2F)c1 [6/17],–,–,–,–
+ (+: ≥1.3-fold to <2-fold),[2H]C([2H])([2H])Oc1cccc(-c2cc(F)c(NC(=O)c3ccsc3C(=O)O)c(F)c2)c1 [2/26],–,–,–,–
++ (++: ≥2-fold to <3-fold),[2H]C([2H])([2H])Oc1cccc(-c2c(F)c(F)c(NC(=O)C3=C(C(=O)O)CC(F)(F)C3)c(F)c2F)c1 [6/1],–,–,–,–
+ (+: ≥1.3-fold to <2-fold),[2H]C([2H])([2H])Oc1cccc(-c2cc(F)c(NC(=O)C3=C(C(=O)NOC)CCC3)c(C#N)c2)c1 [2/29],–,–,–,–
+++ (+++: ≥3-fold),[2H]C([2H])([2H])Oc1ccccc1-c1c(F)c(F)c(NC(=O)C2=C(C(=O)O)CCC2)c(F)c1F [2/27],–,–,–,–
+++ (+++: ≥3-fold),[2H]C([2H])([2H])Oc1cccc(-c2c(F)cc(NC(=O)c3ccsc3C(=O)O)cc2F)c1 [6/8],–,–,–,–
